From paper PMC3145970, “Specific CLK Inhibitors from a Novel Chemotype for Regulation of Alternative Splicing” (Chemistry & Biology, 2011)
Where two headings read alike, the source gives them in different places.

Key:
Assay in all cases: Thermal stability shift assay
Type in all cases: binding
MAP2K6 = molecular target: T1, MAP2K6 (Homo sapiens, UniProt P52564); conditions: read-out: Tm shift MAP2K6
T1 construct: purchased in-house (SGC Oxford thermal shift panel)
T1 sequence (P52564 1-334): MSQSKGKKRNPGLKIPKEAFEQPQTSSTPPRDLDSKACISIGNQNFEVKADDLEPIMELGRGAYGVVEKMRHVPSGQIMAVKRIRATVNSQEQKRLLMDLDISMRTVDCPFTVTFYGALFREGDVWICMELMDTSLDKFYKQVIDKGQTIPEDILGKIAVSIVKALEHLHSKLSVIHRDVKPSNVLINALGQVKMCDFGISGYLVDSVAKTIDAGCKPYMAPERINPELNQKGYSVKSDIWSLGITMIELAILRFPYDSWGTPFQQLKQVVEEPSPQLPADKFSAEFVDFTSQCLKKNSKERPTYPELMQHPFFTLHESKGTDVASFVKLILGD
In short: (§1)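 2 μM protein + 10 μM inhibitor; 10 mM HEPES pH 7.5, 500 mM NaCl, SyproOrange 1:1000; melt in qPCR cycler, dye fluorescence monitored.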

ACTR2 = ACTR2 (Homo sapiens, UniProt P27037); conditions: read-out: Tm shift ACTR2
In short: as §1

STK33 = STK33 (Homo sapiens, UniProt Q9BYT3); conditions: read-out: Tm shift STK33
In short: as §1

YANK1 = YANK1 (Homo sapiens, UniProt Q8WU08); conditions: read-out: Tm shift YANK1
In short: as §1

CaMK4 = molecular target: T2, CaMK4 (Homo sapiens, UniProt Q16566); conditions: read-out: Tm shift CaMK4
T2 sequence (Q16566 1-473): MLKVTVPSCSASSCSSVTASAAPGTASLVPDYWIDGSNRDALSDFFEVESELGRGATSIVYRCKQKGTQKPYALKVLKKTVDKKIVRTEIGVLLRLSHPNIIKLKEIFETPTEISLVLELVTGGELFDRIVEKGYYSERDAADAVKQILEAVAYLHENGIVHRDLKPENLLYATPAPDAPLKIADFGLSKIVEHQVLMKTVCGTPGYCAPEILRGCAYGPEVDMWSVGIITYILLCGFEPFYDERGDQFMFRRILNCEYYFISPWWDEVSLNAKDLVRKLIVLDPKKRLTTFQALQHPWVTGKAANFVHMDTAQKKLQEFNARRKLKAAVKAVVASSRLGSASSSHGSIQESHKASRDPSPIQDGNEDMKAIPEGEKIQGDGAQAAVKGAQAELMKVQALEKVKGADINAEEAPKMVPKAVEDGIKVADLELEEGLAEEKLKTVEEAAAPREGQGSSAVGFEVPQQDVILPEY
In short: as §1

DCAMKL1 = molecular target: T3, DCAMKL1 (Homo sapiens, UniProt O15075); conditions: read-out: Tm shift DCAMKL1
T3 construct: purchased in-house (SGC Oxford thermal shift panel)
T3 sequence (O15075 1-740): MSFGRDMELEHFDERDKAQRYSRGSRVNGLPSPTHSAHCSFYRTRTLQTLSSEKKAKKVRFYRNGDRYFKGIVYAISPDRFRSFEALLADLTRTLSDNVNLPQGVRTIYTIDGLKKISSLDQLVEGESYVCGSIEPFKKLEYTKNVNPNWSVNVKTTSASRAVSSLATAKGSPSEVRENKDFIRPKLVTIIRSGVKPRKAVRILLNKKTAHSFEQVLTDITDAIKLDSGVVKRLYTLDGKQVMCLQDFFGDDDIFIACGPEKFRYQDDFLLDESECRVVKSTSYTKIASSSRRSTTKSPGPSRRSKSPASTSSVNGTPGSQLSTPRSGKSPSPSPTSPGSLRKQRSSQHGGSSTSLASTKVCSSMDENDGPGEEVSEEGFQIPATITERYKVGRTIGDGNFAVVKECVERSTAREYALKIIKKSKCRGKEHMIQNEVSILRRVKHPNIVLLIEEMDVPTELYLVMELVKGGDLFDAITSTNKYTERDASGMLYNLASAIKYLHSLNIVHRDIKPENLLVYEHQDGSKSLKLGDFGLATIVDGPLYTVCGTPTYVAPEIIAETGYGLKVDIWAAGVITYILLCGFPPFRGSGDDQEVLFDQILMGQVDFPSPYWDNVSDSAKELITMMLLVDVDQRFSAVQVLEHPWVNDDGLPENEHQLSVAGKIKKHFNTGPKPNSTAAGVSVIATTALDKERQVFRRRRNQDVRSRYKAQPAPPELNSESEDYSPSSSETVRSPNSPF
In short: as §1

Chain of ACTR2 (P27037 20-513): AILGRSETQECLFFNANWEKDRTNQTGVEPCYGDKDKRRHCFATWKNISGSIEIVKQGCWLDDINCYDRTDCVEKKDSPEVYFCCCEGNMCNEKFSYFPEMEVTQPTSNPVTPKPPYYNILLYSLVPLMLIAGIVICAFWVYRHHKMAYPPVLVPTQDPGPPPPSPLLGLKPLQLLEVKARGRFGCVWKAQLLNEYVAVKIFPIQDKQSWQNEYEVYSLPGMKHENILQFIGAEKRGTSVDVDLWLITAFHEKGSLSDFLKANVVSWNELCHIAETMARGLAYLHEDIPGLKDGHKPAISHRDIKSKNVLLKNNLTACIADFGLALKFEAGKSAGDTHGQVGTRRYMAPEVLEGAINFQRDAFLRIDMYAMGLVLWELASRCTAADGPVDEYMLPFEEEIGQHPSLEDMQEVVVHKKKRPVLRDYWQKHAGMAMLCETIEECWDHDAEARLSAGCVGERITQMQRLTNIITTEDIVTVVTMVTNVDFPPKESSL
Chain of STK33 (Q9BYT3 whole entry): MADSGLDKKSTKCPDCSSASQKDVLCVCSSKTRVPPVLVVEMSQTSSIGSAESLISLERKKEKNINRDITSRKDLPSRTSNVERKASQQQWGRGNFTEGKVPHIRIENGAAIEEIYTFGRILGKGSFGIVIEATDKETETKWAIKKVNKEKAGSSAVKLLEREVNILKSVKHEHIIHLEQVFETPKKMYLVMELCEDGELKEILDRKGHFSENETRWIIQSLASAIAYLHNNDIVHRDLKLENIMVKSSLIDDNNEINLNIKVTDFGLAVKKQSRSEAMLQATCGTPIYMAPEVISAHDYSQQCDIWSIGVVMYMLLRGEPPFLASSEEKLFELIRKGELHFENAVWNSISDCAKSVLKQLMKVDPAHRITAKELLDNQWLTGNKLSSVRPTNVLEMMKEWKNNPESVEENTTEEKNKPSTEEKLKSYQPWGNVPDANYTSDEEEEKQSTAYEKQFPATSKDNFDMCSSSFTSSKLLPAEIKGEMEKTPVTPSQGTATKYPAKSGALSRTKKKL
Chain of YANK1 (Q8WU08 whole entry): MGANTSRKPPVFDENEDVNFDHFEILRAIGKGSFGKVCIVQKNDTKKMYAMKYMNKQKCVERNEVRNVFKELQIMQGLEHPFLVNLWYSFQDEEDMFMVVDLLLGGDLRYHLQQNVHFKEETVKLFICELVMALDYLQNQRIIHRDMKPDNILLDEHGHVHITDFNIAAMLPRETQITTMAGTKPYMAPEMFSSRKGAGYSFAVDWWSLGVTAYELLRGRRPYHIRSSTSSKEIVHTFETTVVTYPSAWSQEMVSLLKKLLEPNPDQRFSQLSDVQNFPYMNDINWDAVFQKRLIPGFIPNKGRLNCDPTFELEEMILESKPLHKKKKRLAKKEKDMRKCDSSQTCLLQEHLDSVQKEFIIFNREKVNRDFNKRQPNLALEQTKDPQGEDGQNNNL

SMILES	ΔTm at 10 µM (MAP2K6)	ΔTm at 10 µM (ACTR2)	ΔTm at 10 µM (STK33)	ΔTm at 10 µM (YANK1)	ΔTm at 10 µM (CaMK4)	ΔTm at 10 µM (DCAMKL1)	ΔTm at 10 µM (MAP2K6; inhibitor 10 μM)	ΔTm at 10 µM (ACTR2; inhibitor 10 μM)	ΔTm at 10 µM (STK33; inhibitor 10 μM)	ΔTm at 10 µM (YANK1; inhibitor 10 μM)	ΔTm at 10 µM (CaMK4; inhibitor 10 μM)	ΔTm at 10 µM (DCAMKL1; inhibitor 10 μM)
CCOC(=O)c1c(/C(C#N)=C\N)c2ccc(Cl)c(Cl)c2n1C [KH-CB19, (E)-Ethyl 3-(2-Amino-1-Cyanovinyl)-6,7-Dichloro-1-Methyl-1H-Indole-2-Carboxylate]	0.5 °C	0.2 °C	0.3 °C	-0.2 °C	0.8 °C	-0.2 °C	–	–	–	–	–	–
CCOC(=O)c1c(C(C#N)=CN)c2ccc(Cl)c(Cl)c2n1C (mixture of isomers) [KH-CB20, (E/Z)-Ethyl 3-(2-Amino-1-Cyanovinyl)-6,7-Dichloro-1-Methyl-1H-Indole-2-Carboxylate]	0.6 °C	0.4 °C	0.8 °C	-0.3 °C	-0.1 °C	-0.1 °C	–	–	–	–	–	–
NC1=NC(=O)/C(=C2\CCNC(=O)c3[nH]c(Br)cc32)N1 [Hymenialdisine, hymenialdisine, reference compound]	–	–	–	–	–	–	0.6 °C	0.7 °C	3.9 °C	0 °C	0.4 °C	0.5 °C
CCOC(=O)c1c(C(C#N)=CN(C)C)c2ccc(Cl)c(Cl)c2n1C (mixture of isomers) [compound 2, (E/Z)-Ethyl 6,7-Dichloro-3-[1-Cyano-2-(Dimethylamino)Vinyl]-1-Methyl-1H-Indole-2-Carboxylate]	–	–	–	–	–	–	0.4 °C	0.6 °C	0.7 °C	0 °C	0.2 °C	0.7 °C
Cn1c2c(Cl)c(Cl)ccc2c2c(C#N)c[nH]c(=O)c21 [compound 3, 7,8-Dichloro-9-Methyl-1-Oxo-2,9-Dihydro-1H-Pyrido[3,4-b]Indole-4-Carbonitrile]	–	–	–	–	–	–	0.1 °C	0.8 °C	1.1 °C	0.3 °C	0.4 °C	0 °C
